Measured values taken from patent US7902200B2, “Chemical compounds” (AstraZeneca AB, priority 2006, dated 2011).

The molecules below were run against T1, recombinant human pancreatic GLK (Homo sapiens, UniProt P35557) (assay: GKH1 variant of GLK enzymatic activity assay (manual bench-top rate assay)). Conditions: activation of GLK; 60 nmol/l GLK; rate over 5 minute window; no GLKRP.
T1 construct: 6-His (N); made in house; host or cells: E. coli BL21
T1 sequence (P35557 1-465): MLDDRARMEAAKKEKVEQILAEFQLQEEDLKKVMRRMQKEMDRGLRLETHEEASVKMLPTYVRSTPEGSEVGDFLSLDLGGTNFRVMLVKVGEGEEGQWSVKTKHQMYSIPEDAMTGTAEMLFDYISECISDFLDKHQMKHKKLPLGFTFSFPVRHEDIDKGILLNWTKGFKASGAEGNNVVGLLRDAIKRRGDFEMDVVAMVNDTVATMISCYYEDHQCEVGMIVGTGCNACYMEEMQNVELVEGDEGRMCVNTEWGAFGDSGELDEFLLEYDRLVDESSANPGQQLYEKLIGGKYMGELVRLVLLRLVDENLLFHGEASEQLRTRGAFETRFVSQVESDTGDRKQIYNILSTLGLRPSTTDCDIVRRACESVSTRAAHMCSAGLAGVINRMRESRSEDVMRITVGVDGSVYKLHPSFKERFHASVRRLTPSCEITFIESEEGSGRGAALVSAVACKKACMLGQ
Assay type: biochemical
Description: (§1) Enzymatic activity of recombinant human pancreatic GLK may be measured by incubating GLK, ATP and glucose. The rate of product formation may be determined by coupling the assay to a G-6-P dehydrogenase, NADP/NADPH system and measuring the linear increase with time of optical density at 340 nm (Brocklehurst et al (Diabetes 2004, 53, 535-541). Activation of GLK by compounds can be assessed using this assay in the presence or absence of GLKRP as described in Brocklehurst et al (Diabetes 2004, 53, 535-541).
(§2) One or both of two variants of this assay, GKH1 and GKH4, were used to test the compounds of the invention. The GKH1 assay is a manual, bench-top rate assay using 60 nmol/l of recombinant human pancreatic GLK. The GLK activity rate is measured over a 5 minute window using a Multiskan Ascent spectrophotometer. The GKH4 assay is an automated end-point assay using 10 nmol/l of recombinant human pancreatic GLK. The GLK activity is measured at 10 minutes after the initiation of the assay on a Perkin Elmer Envision spectrophotometer.

| Structure (SMILES) | EC50 [nM] |
| --- | --- |
| Cc1cnc(NC(=O)c2cc(Oc3ccc(C(=O)N4CCC4)nc3)cc(O[C@H]3CCN(C)C3=O)c2)cn1 [Example 1, 3-[6-(Azetidine-1-carbonyl)pyridin-3-yl]oxy-5-[(3S)-1-methyl-2-oxo-pyrrolidin-3-yl]oxy-N-(5-methylpyrazin-2-yl)benzamide] | 90 |
| Cc1cnc(NC(=O)c2cc(Oc3ccc(C(=O)N4CCC4)nc3)cc(O[C@@H]3CCN(C)C3=O)c2)cn1 [Example 2, 3-[6-(Azetidine-1-carbonyl)pyridin-3-yl]oxy-5-[(3R)-1-methyl-2-oxo-pyrrolidin-3-yl]oxy-N-(5-methylpyrazin-2-yl)benzamide] | 3930 |
| Cc1cnc(NC(=O)c2cc(Oc3ccc4c(c3)OCCN(C)S4(=O)=O)cc(O[C@H]3CCN(C)C3=O)c2)cn1 [Example 11, 3-[(5-methyl-6,6-dioxo-2-oxa-6-λ^6-thia-5-azabicyclo[5.4.0]undeca-8,10,12-trien-10-yl)oxy]-5-(1-methyl-2-oxo-pyrrolidin-3-yl)oxy-N-(5-methylpyrazin-2-yl)benzamide] | 140 |
| CN1CC[C@H](Oc2cc(Oc3ccc(C(=O)N4CCC4)nc3)cc(C(=O)Nc3cnccn3)c2)C1=O [Example 12, 3-[6-(Azetidine-1-carbonyl)pyridin-3-yl]oxy-5-[(3S)-1-methyl-2-oxo-pyrrolidin-3-yl]oxy-N-pyrazin-2-yl-benzamide] | 300 |
| CN1CC[C@H](Oc2cc(Oc3ccc(C(=O)N4CCC4)nc3)cc(C(=O)Nc3ccccn3)c2)C1=O [Example 13, 3-[6-(Azetidine-1-carbonyl)pyridin-3-yl]oxy-5-[(3S)-1-methyl-2-oxo-pyrrolidin-3-yl]oxy-N-pyridin-2-yl-benzamide] | 430 |

These molecules were tested against T1, recombinant human pancreatic GLK (assay: GKH4 variant of GLK enzymatic activity assay (automated end-point assay)). Conditions: activation of GLK; 10 nmol/l GLK; end-point at 10 minutes; no GLKRP.
Assay type: biochemical
Description: as §1, §2

| Structure (SMILES) | EC50 [nM] |
| --- | --- |
| CCN1CCC(Oc2cc(Oc3ccc(C(=O)N4CCC4)nc3)cc(C(=O)Nc3cnc(C)cn3)c2)C1=O (racemic) [Example 10, 3-[6-(Azetidine-1-carbonyl)pyridin-3-yl]oxy-5-(1-ethyl-2-oxo-pyrrolidin-3-yl)oxy-N-(5-methylpyrazin-2-yl)benzamide] | 260 |
| Cc1cnc(NC(=O)c2cc(Oc3ccc(C(=O)N4CCC4)nc3)cc(OC3CCN(C4CCC4)C3=O)c2)cn1 (racemic) [Example 17, 3-[6-(Azetidine-1-carbonyl)pyridin-3-yl]oxy-5-(1-cyclobutyl-2-oxo-pyrrolidin-3-yl)oxy-N-(5-methylpyrazin-2-yl)benzamide] | 600 |
| Cc1cnc(NC(=O)c2cc(Oc3ccc(C(=O)N4CCC4)nc3)cc(O[C@H]3CCN(C)C3=O)c2)cn1 [Example 1, 3-[6-(Azetidine-1-carbonyl)pyridin-3-yl]oxy-5-[(3S)-1-methyl-2-oxo-pyrrolidin-3-yl]oxy-N-(5-methylpyrazin-2-yl)benzamide] | 300 |
| Cc1csc(NC(=O)c2cc(Oc3cnc(C(=O)N4CCC4)cn3)cc(O[C@H]3CCN(C)C3=O)c2)n1 [Example 3, 3-[5-(Azetidine-1-carbonyl)pyrazin-2-yl]oxy-5-[(3S)-1-methyl-2-oxo-pyrrolidin-3-yl]oxy-N-(4-methyl1,3-thiazol-2-yl)benzamide] | 290 |
| Cc1csc(NC(=O)c2cc(Oc3cnc(C(=O)N4CCC4)cn3)cc(O[C@@H]3CCN(C)C3=O)c2)n1 [Example 4, 3-[5-(Azetidine-1-carbonyl)pyrazin-2-yl]oxy-5-[(3R)-1-methyl-2-oxo-pyrrolidin-3-yl]oxy-N-(4-methyl1,3-thiazol-2-yl)benzamide] | 18300 |
| CN1CC[C@H](Oc2cc(Oc3ccc(C(=O)N4CCC4)cc3)cc(C(=O)Nc3cc[nH]n3)c2)C1=O [Example 5, 3-[4-(Azetidine-1-carbonyl)phenoxy]-5-[(3S)-1-methyl-2-oxo-pyrrolidin-3-yl]oxy-N-(1H-pyrazol-3-yl)benzamide] | 150 |
| Cc1cnc(NC(=O)c2cc(Oc3ncc(C(=O)N4CCC4)cc3Cl)cc(O[C@H]3CCN(C)C3=O)c2)cn1 [Example 6, 3-[5-(Azetidine-1-carbonyl)-3-chloro-pyridin-2-yl]oxy-5-[(3S)-1-methyl-2-oxo-pyrrolidin-3-yl]oxy-N-(5-methylpyrazin-2-yl)benzamide] | 190 |
| Cc1cnc(NC(=O)c2cc(Oc3ccc(S(C)(=O)=O)cc3)cc(O[C@H]3CCN(C)C3=O)c2)cn1 [Example 7, 3-[(3S)-1-Methyl-2-oxo-pyrrolidin-3-yl]oxy-N-(5-methylpyrazin-2-yl)-5-(4-methylsulfonylphenoxy)benzamide] | 570 |
| Cc1cnc(NC(=O)c2cc(Oc3ccc(C(=O)N4CCC4)cc3)cc(O[C@H]3CCN(C)C3=O)c2)cn1 [Example 8, 3-[4-(Azetidine-1-carbonyl)phenoxy]-5-[(3S)-1-methyl-2-oxo-pyrrolidin-3-yl]oxy-N-(5-methylpyrazin-2-yl)benzamide] | 190 |
| Cc1cnc(NC(=O)c2cc(Oc3ccc4c(c3)OCCCS4(=O)=O)cc(O[C@H]3CCN(C)C3=O)c2)cn1 [Example 9, 3-[(2,2-Dioxo-6-oxa-2-λ^6-thiabicyclo[5.4.0]undeca-7,9,11-trien-9-yl)oxy]-5-[(3S)-1-methyl-2-oxo-pyrrolidin-3-yl]oxy-N-(5-methylpyrazin-2-yl)benzamide] | 120 |
| Cc1cnc(NC(=O)c2cc(Oc3ccc4c(c3)OCCN(C)S4(=O)=O)cc(O[C@H]3CCN(C)C3=O)c2)cn1 [Example 11, 3-[(5-methyl-6,6-dioxo-2-oxa-6-λ^6-thia-5-azabicyclo[5.4.0]undeca-8,10,12-trien-10-yl)oxy]-5-(1-methyl-2-oxo-pyrrolidin-3-yl)oxy-N-(5-methylpyrazin-2-yl)benzamide] | 310 |
| CN1CC[C@H](Oc2cc(Oc3ccc(C(=O)N4CCC4)nc3)cc(C(=O)Nc3cnccn3)c2)C1=O [Example 12, 3-[6-(Azetidine-1-carbonyl)pyridin-3-yl]oxy-5-[(3S)-1-methyl-2-oxo-pyrrolidin-3-yl]oxy-N-pyrazin-2-yl-benzamide] | 430 |
| CN1CC[C@H](Oc2cc(Oc3ccc(C(=O)N4CCC4)nc3)cc(C(=O)Nc3ccccn3)c2)C1=O [Example 13, 3-[6-(Azetidine-1-carbonyl)pyridin-3-yl]oxy-5-[(3S)-1-methyl-2-oxo-pyrrolidin-3-yl]oxy-N-pyridin-2-yl-benzamide] | 170 |
| Cc1cnc(NC(=O)c2cc(Oc3ccc4c(c3Cl)OCCN(C)C4=O)cc(O[C@H]3CCN(C)C3=O)c2)cn1 [Example 14, 3-[(11-Chloro-5-methyl-6-oxo-2-oxa-5-azabicyclo[5.4.0]undeca-8,10,12-trien-10-yl)oxy]-5-[(3S)-1-methyl-2-oxo-pyrrolidin-3-yl]oxy-N-(5-methylpyrazin-2-yl)benzamide] | 80 |
| Cc1cnc(NC(=O)c2cc(Oc3ccc4c(c3)OCCN(C)C4=O)cc(O[C@H]3CCN(C)C3=O)c2)cn1 [Example 16, 3-[(5-Methyl-6-oxo-2-oxa-5-azabicyclo[5.4.0]undeca-8,10,12-trien-10-yl)oxy]-5-[(3S)-1-methyl-2-oxo-pyrrolidin-3-yl]oxy-N-(5-methylpyrazin-2-yl)benzamide] | 310 |
| Cc1cnc(NC(=O)c2cc(Oc3ccc(C(=O)N4CCC4)nc3)cc(O[C@H]3CCN(C4CC4)C3=O)c2)cn1 [Example 19, 3-[6-(Azetidine-1-carbonyl)pyridin-3-yl]oxy-5-[(3S)-1-cyclopropyl-2-oxo-pyrrolidin-3-yl]oxy-N-(5-methylpyrazin-2-yl)benzamide] | 590 |
| Cc1cnc(NC(=O)c2cc(Oc3ccc(C(=O)N(C)C)cc3Cl)cc(O[C@H]3CCN(C)C3=O)c2)cn1 [Example 26, 3-[2-Chloro-4-(dimethylcarbamoyl)phenoxy]-5-[(3S)-1-methyl-2-oxo-pyrrolidin-3-yl]oxy-N-(5-methylpyrazin-2-yl)benzamide] | 390 |
| Cc1cnc(NC(=O)c2cc(Oc3ccc4c(c3)OCCNS4(=O)=O)cc(O[C@H]3CCN(C)C3=O)c2)cn1 [Example 27, 3-[(6,6-dioxo-2-oxa-6-λ^6-thia-5-azabicyclo[5.4.0]undeca-8,10,12-trien-10-yl)oxy]-5-[(3S)-1-methyl-2-oxo-pyrrolidin-3-yl]oxy-N-(5-methylpyrazin-2-yl)benzamide] | 660 |
| Cc1cnc(NC(=O)c2cc(Oc3ccc(S(C)(=O)=O)nc3)cc(O[C@H]3CCN(C)C3=O)c2)cn1 [Example 28, 3-[(3S)-1-methyl-2-oxo-pyrrolidin-3-yl]oxy-N-(5-methylpyrazin-2-yl)-5-(6-methylsulfonylpyridin-3-yl)oxy-benzamide] | 570 |
| Cc1cnc(NC(=O)c2cc(Oc3ccc(C(=O)N(C)C)nc3)cc(O[C@H]3CCN(C)C3=O)c2)cn1 [Example 29, N,N-dimethyl-5-[3-[(3S)-1-methyl-2-oxo-pyrrolidin-3-yl]oxy-5-[(5-methylpyrazin-2-yl)carbamoyl]phenoxy]pyridine-2-carboxamide] | 100 |
| CN1COc2cc(Oc3cc(O[C@H]4CCN(C)C4=O)cc(C(=O)Nc4cc[nH]n4)c3)ccc2C1=O [Example 30, 3-[(9-methyl-10-oxo-7-oxa-9-azabicyclo[4.4.0]deca-2,4,11-trien-4-yl)oxy]-5-[(3S)-1-methyl-2-oxo-pyrrolidin-3-yl]oxy-N-(1H-pyrazol-3-yl)benzamide] | 60 |
| Cc1nsc(NC(=O)c2cc(Oc3cnc(C(=O)N(C)C)cn3)cc(O[C@H]3CCN(C)C3=O)c2)n1 [Example 31, N,N-dimethyl-5-[3-[(3S)-1-methyl-2-oxo-pyrrolidin-3-yl]oxy-5-[(3-methyl-1,2,4-thiadiazol-5-yl)carbamoyl]phenoxy]pyrazine-2-carboxamide] | 1080 |
| Cc1csc(NC(=O)c2cc(Oc3cnc(C(=O)N(C)C)cn3)cc(O[C@H]3CCN(C)C3=O)c2)n1 [Example 32, N,N-Dimethyl-5-[3-[(3S)-1-methyl-2-oxo-pyrrolidin-3-yl]oxy-5-[(4-methyl-1,3-thiazol-2-yl)carbamoyl]phenoxy]pyrazine-2-carboxamide] | 60 |
